For 18 compounds, TGI and GI50 results are on record in PubChem BioAssay (NCI).

Each structure is given as a SMILES string.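 Values below derive from 48-hour exposures of cells grown in 96-well plates, with endpoints linearly interpolated between the two concentrations bracketing the appropriate inhibition level. GI50: concentration for 50% inhibition of growth. TGI is the concentration that stops growth completely.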

Among the test systems are SF-295 CNS; HL-60(TB) leukemia; SF-539 CNS; RPMI-8226 leukemia; HCT-116 colon; U251 CNS; MCF7 breast; HOP-92 NSCLC; HS 578T breast; 786-0 renal.
What all share (assay): NCI anticancer screen, dose series, 48 h

Regarding `COc1ccc(C(=O)Cc2cc(OC)ccc2OC)cc1`, the TGI with SF-295 CNS, in the experiment on HL-60(TB) leukemia, with SF-539 CNS, with RPMI-8226 leukemia, with HCT-116 colon and with U251 CNS was over 100 µM in each case.

Take `C=C1C(=O)O[C@H]2C1[C@H](OC(=O)/C(C)=C\COC(C)=O)C[C@]1(CO1)[C@@H]1[C@H](O)[C@H]3O[C@@]3(C)[C@@H]12` (some centres not stated): the TGI is over 100 µM in the experiment on SF-295 CNS; over 57.7 µM with HL-60(TB) leukemia; over 65.4 µM in the experiment on SF-539 CNS; 27.8 µM in the experiment on MCF7 breast; 46.5 µM in the experiment with RPMI-8226 leukemia; 26.5 µM in the experiment on HCT-116 colon. For the same compound, the TGI in the experiment with HOP-92 NSCLC worked out at 30.8 µM; with U251 CNS it was 44.7 µM.

With `COc1ccc(CNc2nc(NCc3ccc(OC)cc3)nc(NC3CCCCC3)n2)cc1`, the TGI with SF-295 CNS was 4.14 µM; with HL-60(TB) leukemia it was over 100 µM; in the experiment on HS 578T breast, 4.85 µM; in the experiment on 786-0 renal, over 100 µM; in the experiment with SF-539 CNS it was over 100 µM; in the experiment on MCF7 breast, 0.533 µM. The TGI with RPMI-8226 leukemia was over 100 µM; in the experiment on HCT-116 colon it was 11.7 µM; with HOP-92 NSCLC, over 100 µM; with U251 CNS it was over 100 µM.

With `COc1ccc(/C=N/Nc2[nH]c(=S)nc3[nH]ncc23)cc1`, the TGI in the experiment with SF-295 CNS, with HL-60(TB) leukemia, in the experiment on HS 578T breast, in the experiment on 786-0 renal, with SF-539 CNS and with MCF7 breast was over 100 µM in each case. Further, the TGI in the experiment with RPMI-8226 leukemia is over 100 µM; in the experiment with HCT-116 colon it was over 100 µM; in the experiment with U251 CNS, 40.7 µM.

Take `CN(C)CCCn1c2ccccc2c2cnccc21`: the TGI with SF-295 CNS is over 100 µM; with HL-60(TB) leukemia, 99.8 µM; in the experiment on HS 578T breast, over 100 µM; with 786-0 renal it was over 100 µM; with SF-539 CNS, 48.2 µM; in the experiment with MCF7 breast, over 100 µM. Besides, the TGI in the experiment on RPMI-8226 leukemia was 71.6 µM; in the experiment with HCT-116 colon it was over 100 µM; with HOP-92 NSCLC, over 100 µM; in the experiment with U251 CNS, over 100 µM.

As to `Cc1cc(NS(=O)(=O)c2ccc(Nc3c4ccccc4nc4c(C(=O)NCCN(C)C)ccc(Cl)c34)cc2)no1`, the TGI in the experiment with SF-295 CNS came out at 16.2 µM; with HL-60(TB) leukemia it was 5.58 µM; in the experiment on SF-539 CNS it was 14.6 µM; in the experiment with HCT-116 colon, 15.5 µM; with U251 CNS, 13.6 µM.

For `Cc1ncc([N+](=O)[O-])n1CCN=[N+]=[N-]`, the TGI with SF-295 CNS, with HS 578T breast, in the experiment with 786-0 renal, with SF-539 CNS, in the experiment with MCF7 breast and with RPMI-8226 leukemia was over 100 µM each time. The TGI in the experiment on HCT-116 colon, with HOP-92 NSCLC and in the experiment on U251 CNS was over 100 µM in each case.

In the case of `CCOC(=O)c1c2c(n(C)c1-c1ccccc1)C(=O)C(C)=CC2=O`, the TGI came to 36.8 µM in the experiment on SF-295 CNS; 9.79 µM in the experiment with HL-60(TB) leukemia; 56.7 µM in the experiment with HS 578T breast; 32.1 µM with 786-0 renal; 14.6 µM in the experiment on SF-539 CNS; 6.01 µM in the experiment on MCF7 breast. The TGI with RPMI-8226 leukemia amounted to 4.81 µM; with HCT-116 colon, 15 µM; with HOP-92 NSCLC it was 5.46 µM; in the experiment on U251 CNS, 22.8 µM.

For the compound `O=S1(=O)NNC(=NCc2ccc(F)cc2)c2ccccc21`, the TGI in the experiment on SF-295 CNS was over 100 µM; in the experiment with HL-60(TB) leukemia, 19.6 µM; with HS 578T breast, 49.2 µM; with 786-0 renal it was over 100 µM; in the experiment with SF-539 CNS it was over 100 µM; in the experiment with MCF7 breast, over 100 µM. In addition, the TGI in the experiment with RPMI-8226 leukemia is over 78.8 µM; in the experiment on HCT-116 colon it was over 100 µM; in the experiment on HOP-92 NSCLC, over 83.5 µM; in the experiment with U251 CNS, over 83.4 µM.

For `COc1cn2c(cc1=O)COc1ccc(-c3ccccc3)cc1-2`, the TGI in the experiment with SF-295 CNS, with HL-60(TB) leukemia, in the experiment on HS 578T breast, in the experiment on 786-0 renal, in the experiment with SF-539 CNS and with MCF7 breast was over 100 µM each time. In addition, the TGI with RPMI-8226 leukemia, in the experiment on HCT-116 colon, with HOP-92 NSCLC and in the experiment on U251 CNS was over 100 µM throughout. Moreover, the GI50 in the experiment on HS 578T breast and in the experiment on SF-539 CNS was 43.6 µM in each case.

Turning to `CC(C)(C)OC(=O)NC(Cc1ccccc1)C(=O)N[C@H]1c2ccsc2/C(=N/O)[C@H]1O` (some centres not stated), the TGI in the experiment on SF-295 CNS, with HL-60(TB) leukemia, in the experiment with SF-539 CNS, in the experiment with MCF7 breast, in the experiment on HCT-116 colon and in the experiment with HOP-92 NSCLC was over 100 µM throughout. This compound also displayed a TGI in the experiment on U251 CNS of over 100 µM.

As for `COc1cc(S(=O)(=O)Nc2nc(-c3ccc(N4C(=O)/C(=C/c5ccccc5)N=C4c4ccccc4)cc3)cs2)ccc1Cl`, the TGI was over 100 µM with SF-295 CNS; 93.6 µM in the experiment on HS 578T breast; over 100 µM with 786-0 renal; over 100 µM with SF-539 CNS; over 100 µM in the experiment on MCF7 breast; over 100 µM in the experiment on HCT-116 colon. The TGI with HOP-92 NSCLC and in the experiment on U251 CNS was over 100 µM in each case.

Consider `CC(C)=CCN(N=O)c1ncnc2nc[nH]c12`, for which the TGI in the experiment with SF-295 CNS, in the experiment on HL-60(TB) leukemia, in the experiment with HS 578T breast, in the experiment on 786-0 renal, in the experiment with SF-539 CNS and in the experiment with MCF7 breast was over 100 µM throughout. In addition, the TGI in the experiment on RPMI-8226 leukemia, in the experiment on HCT-116 colon and in the experiment on HOP-92 NSCLC was over 100 µM in each case.

On to `CCCCc1ccc2[n+](c1)C(C(=O)OCC)=PC2` (configuration not stated), for which the TGI in the experiment with SF-295 CNS, in the experiment on HL-60(TB) leukemia, with HS 578T breast, in the experiment with 786-0 renal, in the experiment on SF-539 CNS and in the experiment on MCF7 breast was over 100 µM each time. For the same compound, the TGI with RPMI-8226 leukemia, in the experiment with HCT-116 colon, in the experiment on HOP-92 NSCLC and in the experiment on U251 CNS was over 100 µM throughout.

Take `O=C1c2ccccc2-c2ccc(NC(=O)C3CCCCC3C(=O)O)cc21` (configuration not stated): the TGI in the experiment with SF-295 CNS, in the experiment with HL-60(TB) leukemia, in the experiment on HS 578T breast, in the experiment with 786-0 renal, with SF-539 CNS and with MCF7 breast was over 100 µM each time. Further, the TGI in the experiment with RPMI-8226 leukemia, with HCT-116 colon, with HOP-92 NSCLC and in the experiment on U251 CNS was over 100 µM each time.

Consider `COc1cc(C2C(Cl)C(=O)N2c2ccc(Br)cc2)cc(I)c1O` (configuration not stated), for which the TGI in the experiment with SF-295 CNS, in the experiment on HL-60(TB) leukemia, in the experiment with HS 578T breast, with 786-0 renal, in the experiment on SF-539 CNS and in the experiment with MCF7 breast was over 100 µM each time. For the same compound, the TGI with RPMI-8226 leukemia, in the experiment with HCT-116 colon and in the experiment with U251 CNS was over 100 µM each time.

On to `COc1cc(N=Nc2cccc(S(=O)(=O)O)c2)c(C)cc1N=Nc1ccc(/C=C/c2ccc(N=[N+]([O-])c3ccc(/C=C/c4ccc(N=Nc5cc(C)c(N=Nc6cccc(S(=O)(=O)O)c6)cc5OC)cc4)c(S(=O)(=O)O)c3)cc2S(=O)(=O)O)cc1`, for which the TGI in the experiment with SF-295 CNS, with HL-60(TB) leukemia, in the experiment with SF-539 CNS, in the experiment with MCF7 breast, in the experiment with HCT-116 colon and in the experiment with HOP-92 NSCLC was over 100 µM each time. The compound further registered a TGI in the experiment with U251 CNS of over 100 µM.

Regarding `COc1ccccc1C1C(C#N)=C(N)OC2=C1C(=O)CCC2` (configuration not stated), the GI50 is over 100 µM in the experiment on SF-295 CNS; over 100 µM in the experiment with HL-60(TB) leukemia; over 100 µM in the experiment on HS 578T breast; over 100 µM with SF-539 CNS; over 100 µM with MCF7 breast; 5.77 µM with RPMI-8226 leukemia. Moreover, the GI50 in the experiment on HCT-116 colon is over 100 µM; in the experiment on HOP-92 NSCLC, 15.8 µM; in the experiment on U251 CNS, over 100 µM. For the same compound, the TGI in the experiment with SF-295 CNS was over 100 µM; in the experiment on HL-60(TB) leukemia it was over 100 µM; with HS 578T breast it was over 100 µM; in the experiment on SF-539 CNS, over 100 µM; in the experiment on MCF7 breast, over 100 µM; in the experiment with RPMI-8226 leukemia it was 44.2 µM. Besides, the TGI in the experiment with HCT-116 colon, in the experiment with HOP-92 NSCLC and in the experiment on U251 CNS was over 100 µM throughout.
